Test system: xylanase Shearzyme
Assay: Burst active site titration of xylanase
Assay type: biochemical
Conditions: for Burst B: pH 5.0, room temperature
Description: The synthesized burst active site titrant 2,4-dinitrophenyl 2-deoxy-2-flouro-β-D-xylopyranoside was dissolved in Milli Q water. 100 μl dissolved titrant was mixed with 50 μl assay buffer (50 mM sodium acetate, 0.0225% Brij 35, pH 5.0) and 50 μl of a purified sample of the commercial xylanase Shearzyme (available from Novozymes) diluted in Milli Q water in the wells of a microtiter plate. Final concentrations of 2,4-dinitrophenyl 2-deoxy-2-flouro-β-D-xylopyranoside were 0.5 mM and 1 mM, whereas the xylanase was added to give final absorbances at 280 nm of 13.4, 6.7 and 3.3. After mixing, absorbance was read at 405 nm at room temperature every 7 min for 30 hours using a SpectraMax Plus (Molecular Devices) microtiter plate reader. After subtraction of absorbances read in wells with same concentration of titrant but without enzyme, the measurements were fitted to the equation: A405=B*(1−exp(−(t+LT)*ln(2)/T1/2))+S*(t+LT)
where A405 is the absorbance at 405 nm, B is the burst in absorbance at 405 nm, t is the time from first measurement of absorbance, LT is the lag time from mixing of the reagents to first measurement of absorbance, T1/2 is the half time for the exponential burst phase and S is the slope due to hydrolysis of the enzyme 2-deoxy-2-fluoro-β-D-xylopyranose complex.

[1] = Xylanase A280 3.3, titrant 0.5 mM
[2] = Xylanase A280 3.3, titrant 1 mM
[3] = Xylanase A280 6.7, titrant 0.5 mM
[4] = Xylanase A280 6.7, titrant 1 mM
[5] = Xylanase A280 13.4, titrant 0.5 mM
[6] = Xylanase A280 13.4, titrant 1 mM

Slope S (hydrolysis of the enzyme 2-deoxy-2-fluoro-β-D-xylopyranose complex) [1]: 0.00 A405/h
Burst B [1]: 0.24 A405
Slope S (hydrolysis of the enzyme 2-deoxy-2-fluoro-β-D-xylopyranose complex) [2]: 0.00 A405/h
Burst B [2]: 0.23 A405
Slope S (hydrolysis of the enzyme 2-deoxy-2-fluoro-β-D-xylopyranose complex) [3]: 0.00 A405/h
Burst B [3]: 0.47 A405
Slope S (hydrolysis of the enzyme 2-deoxy-2-fluoro-β-D-xylopyranose complex) [4]: 0.00 A405/h
Burst B [4]: 0.48 A405
Slope S (hydrolysis of the enzyme 2-deoxy-2-fluoro-β-D-xylopyranose complex) [5]: 0.00 A405/h
Burst B [5]: 0.84 A405
Slope S (hydrolysis of the enzyme 2-deoxy-2-fluoro-β-D-xylopyranose complex) [6]: 0.00 A405/h
Burst B [6]: 0.90 A405
SMILES: O=[N+]([O-])c1ccc(O[C@@H]2OC[C@@H](O)[C@H](O)[C@H]2F)c([N+](=O)[O-])c1 [2,4-dinitrophenyl 2-deoxy-2-flouro-β-D-xylopyranoside]

From patent publication US20060205028A1, “Active-site titration of glycosyl hydrolases” (Novozymes A/S, priority 2003, published 2006)
